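A five-concentration, 48-hour dose response in 96-well plates underlies each endpoint, interpolated linearly between surrounding concentrations. Definition used: TGI = concentration required for complete inhibition of growth.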
What was measured:
Assay in all cases: DTP human tumour cell line panel, 48 h
786-0 renal = tested on: 786-0 renal
A498 renal = tested on: A498 renal
A549 NSCLC = tested on: A549 NSCLC
HCC-2998 colon = tested on: HCC-2998 colon
HCT-116 colon = tested on: HCT-116 colon
HL-60(TB) leukemia = tested on: HL-60(TB) leukemia
HOP-92 NSCLC = tested on: HOP-92 NSCLC
HT29 colon = tested on: HT29 colon
LOX IMVI melanoma = tested on: LOX IMVI melanoma
M14 melanoma = tested on: M14 melanoma
MOLT-4 leukemia = tested on: MOLT-4 leukemia
NCI-H23 lung = tested on: NCI-H23 lung
NCI-H522 lung = tested on: NCI-H522 lung
OVCAR-5 ovarian = tested on: OVCAR-5 ovarian
SF-268 CNS = tested on: SF-268 CNS
SK-MEL-2 melanoma = tested on: SK-MEL-2 melanoma
SNB-19 CNS = tested on: SNB-19 CNS
SW-620 colon = tested on: SW-620 colon

Row | SMILES | TGI (786-0 renal) [µM] | TGI (A498 renal) [µM] | TGI (A549 NSCLC) [µM] | TGI (HCC-2998 colon) [µM] | TGI (HCT-116 colon) [µM] | TGI (HL-60(TB) leukemia) [µM] | TGI (HOP-92 NSCLC) [µM] | TGI (HT29 colon) [µM] | TGI (LOX IMVI melanoma) [µM] | TGI (M14 melanoma) [µM] | TGI (MOLT-4 leukemia) [µM] | TGI (NCI-H23 lung) [µM] | TGI (NCI-H522 lung) [µM] | TGI (OVCAR-5 ovarian) [µM] | TGI (SF-268 CNS) [µM] | TGI (SK-MEL-2 melanoma) [µM] | TGI (SNB-19 CNS) [µM] | TGI (SW-620 colon) [µM]
1 | CC1(C)OC(=O)C(=C2CCC(C(=O)Nc3cccc(C(F)(F)F)c3)N2)C(=O)O1 (stereo not given) | > 100 | > 100 | > 100 | > 100 | > 100 | > 100 | > 100 | > 100 | > 100 | > 100 | > 100 | > 100 | > 100 | > 100 | > 100 | > 100 | > 100 | > 100
2 | O=C(NCCN1CCCCC1)c1cccc(I)c1 | > 100 | > 100 | > 100 | > 100 |  | > 100 | > 100 | > 100 | > 100 | > 100 | > 100 | > 100 |  | > 100 | > 100 |  | > 100 | > 100
3 | COc1ccc(C2Cc3cc(OC)c(OC)c(OC)c3C2)cc1 (stereo not given) | > 100 | > 100 | 76.2 | > 100 | > 100 |  |  | 79.6 | > 100 | > 100 | 61.6 | > 100 |  | > 100 | > 100 | > 100 | > 100 | > 100
4 | O=C(O)CSc1n[nH]c(-c2ccco2)n1 | > 100 | > 100 | > 100 | > 100 | > 100 | > 100 | > 100 | > 100 | > 100 | > 100 | > 100 | > 100 | > 100 | > 100 |  | > 100 | > 100 | > 100
5 | CCOc1ccc(NC(=O)C(=O)Nn2c(N)nnc2N)cc1 | > 100 | > 100 | > 100 | > 100 | > 100 | > 100 | > 100 | > 100 | > 100 | > 100 | > 100 | > 100 | > 100 | > 100 | > 100 | > 100 |  | > 100
6 | COC(=O)/C=C(\C)CCC1SC1(C)C (stereo not given) | > 100 | > 100 | > 100 | > 100 | > 100 | > 100 |  | > 100 | > 100 | > 100 | > 100 | > 100 | > 100 | > 100 | > 100 | > 100 | > 100 | > 100
7 | CCCc1cc(OC(=O)c2c(O)cc(OC)cc2CCC)cc(O)c1C(=O)O | > 100 | 98.8 | > 100 | 66.2 | 32.2 | 52.7 | 39 | > 100 | 61.7 | 73.7 | 84.2 | 42.8 | 43.9 | > 100 |  | 47.4 | > 100 | > 100
8 | COc1ccc(-c2nc(-c3cnccn3)n(C3OC(CO)C(O)C3O)n2)cc1 (stereo not given) | > 10 |  | > 10 | > 10 |  | > 10 | > 10 | > 10 | > 10 | > 10 | > 10 | > 10 | > 10 | > 10 | > 10 | > 10 | > 10 | > 10
9 | CCCCCCCCC(O)c1ccc(/C=C\C(O)CCCC(=O)O)s1 (stereo not given) | > 100 |  | > 100 | > 100 | > 100 | > 100 | > 100 | > 100 | > 100 | > 100 | > 100 | > 100 | > 100 | > 100 | > 100 | > 100 | > 100 | > 100
10 | CN(C)CCN1CCc2c([nH]c3ccccc23)C1c1cccnc1 (stereo not given) | > 100 | > 100 | > 100 | > 100 | > 100 | > 100 | > 100 | > 100 |  | > 100 | > 100 | > 100 | > 100 | > 100 | > 100 |  | > 100 | > 100
11 | O=[N+]([O-])c1cccc(Nc2nc(Cl)nc(Cl)n2)c1 | > 100 |  | > 100 | > 100 | > 100 |  |  | > 100 | > 100 | > 100 | > 100 | > 100 | > 100 | > 100 | > 100 | > 100 | > 100 | > 100

Reference: PubChem BioAssay (NCI)
